How the values were obtained:
Assay type in all cases: in vivo
crabgrass [1] = assay: Herbicidal activity test against upland field weeds (soil treatment test); set-up: key to Soil treatment herbicidal activity, Crabgrass: 0 (no control); 100 (complete control); conditions: 50 g ai/ha, scale 0 (no control) to 100 (complete control); for pest or weed control at 50 g/ha: Digitaria sanguinalis
Method in brief: (§1)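 Weed control scored visually on a 0 (none) to 100 (complete) scale versus untreated pots at 14 or 21 days in greenhouse (30±5 °C, 14 h light). Test compounds, 50 or 75 g a.i./ha in 50% acetone/0.1% Tween-20, hand-sprayed onto soil one day post-sowing.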

indian jointvetch [2] = assay: Herbicidal activity test against upland field weeds (foliar treatment test); set-up: key to Foliar treatment herbicidal activity, Indian jointvetch: 0 (no control); 100 (complete control); conditions: 50 g ai/ha, scale 0-100
Method in brief: (§2)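 Visual 0–100 control ratings relative to untreated plants, taken 14 (or 21) days after spraying foliage at 50 or 75 g a.i./ha. Spray solution: 50% acetone with 0.1% Tween-20; plants kept in greenhouse at 30±5 °C, 14 h light/10 h dark.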

fall panicum [3] = assay: as above; set-up: key to Foliar treatment herbicidal activity, Fall panicum: 0 (no control); 100 (complete control); conditions: 50 g ai/ha, scale 0-100; for pest or weed control at 50 g/ha: Panicum dichotomiflorum
Method in brief: as §2

cocklebur [4] = assay: Herbicidal activity test against upland field weeds (soil treatment test); set-up: key to Soil treatment herbicidal activity, Cocklebur: 0 (no control); 100 (complete control); conditions: 50 g ai/ha, scale 0 (no control) to 100 (complete control); for pest or weed control at 50 g/ha: Xanthium strumarium
Procedure: Experimental Example 2: Herbicidal Activity Test Against Upland Field Weeds (Soil Treatment Test) Soil treatment was performed as follows: After filling a square plastic pot having a surface area of 350 cm^2 with sandy loam mixed with 1 g per pot (350 cm^2) of horticultural mixed fertilizer (N:P:K=11:10:11), seeds (10˜15 grains) or rootstocks (2 pieces) of 5 kinds of grassy weeds of sorghum, barnyard grass, quack grass, crabgrass, fall panicum, and 5 kinds of broadleaf weeds of black nightshade, indian jointvetch, velvetleaf, cocklebur, bindweed, which had been stored in a low temperature (6° C.), were sown. The day after sowing, test compound solutions were made by diluting with a preparation solution (including 50% acetone, 0.1% Tween-20) so that the final treatment amount of the test compounds was 50 or 75 g a.i./ha. The prepared test compound solution was used for treating soil surface by hand-spraying 14 mL per pot in a fume hood. After the treatment, it was managed under the same greenhouse conditions (average temperature 30±5° C., light/dark=14/10 hours), and after 14 days (after 21 days if necessary), the external symptoms and efficacy were investigated according to the scale of 0 (no control) to 100 (complete control). The results of Table 8 were obtained by evaluating weed control value to the untreated control by conducting visual assessment.

crabgrass [5] = assay: Herbicidal activity test against upland field weeds (foliar treatment test); set-up: key to Foliar treatment herbicidal activity, Crabgrass: 0 (no control); 100 (complete control); conditions: 50 g ai/ha, scale 0-100; for pest or weed control at 50 g/ha: Digitaria sanguinalis
Method in brief: as §2

velvetleaf [6] = assay: as above; set-up: key to Foliar treatment herbicidal activity, velvet leaf: 0 (no control); 100 (complete control); conditions: 50 g ai/ha; for pest or weed control at 50 g/ha: Abutilon theophrasti, scale 0-100, read-out: Foliar treatment herbicidal activity, velvet leaf
Method in brief: as §2

sorghum [7] = assay: Herbicidal activity test against upland field weeds (soil treatment test); set-up: key to Soil treatment herbicidal activity, Sorghum: 0 (no control); 100 (complete control); conditions: 50 g ai/ha, scale 0 (no control) to 100 (complete control)
Method in brief: as §1

bindweed [8] = assay: as above; set-up: key to Soil treatment herbicidal activity, Bindweed: 0 (no control); 100 (complete control); conditions: 50 g ai/ha, scale 0 (no control) to 100 (complete control)
Method in brief: as §1

sorghum [9] = assay: Herbicidal activity test against upland field weeds (foliar treatment test); set-up: key to Foliar treatment herbicidal activity, Sorghum: 0 (no control); 100 (complete control); conditions: 50 g ai/ha, scale 0-100
Method in brief: as §2

fall panicum [10] = assay: Herbicidal activity test against upland field weeds (soil treatment test); set-up: key to Soil treatment herbicidal activity, Fall panicum: 0 (no control); 100 (complete control); conditions: 50 g ai/ha, scale 0 (no control) to 100 (complete control); for pest or weed control at 50 g/ha: Panicum dichotomiflorum
Method in brief: as §1

barnyard grass [11] = assay: Herbicidal activity test against upland field weeds (foliar treatment test); set-up: key to Foliar treatment herbicidal activity, barnyard grass: 0 (no control); 100 (complete control); conditions: 50 g ai/ha, scale 0-100; for pest or weed control at 50 g/ha: Echinochloa crus-galli
Method in brief: as §2

quack grass [12] = assay: as above; set-up: key to Foliar treatment herbicidal activity, quack grass: 0 (no control); 100 (complete control); conditions: 50 g ai/ha, scale 0-100
Method in brief: as §2

black nightshade [13] = assay: Herbicidal activity test against upland field weeds (soil treatment test); set-up: key to Soil treatment herbicidal activity, black nightshade: 0 (no control); 100 (complete control); conditions: 50 g ai/ha, scale 0 (no control) to 100 (complete control)
Method in brief: as §1

cocklebur [14] = assay: Herbicidal activity test against upland field weeds (foliar treatment test); set-up: key to Foliar treatment herbicidal activity, Cocklebur: 0 (no control); 100 (complete control); conditions: 50 g ai/ha, scale 0-100; for pest or weed control at 50 g/ha: Xanthium strumarium
Method in brief: as §2

black nightshade [15] = assay: as above; set-up: key to Foliar treatment herbicidal activity, black nightshade: 0 (no control); 100 (complete control); conditions: 50 g ai/ha, scale 0-100; for pest or weed control at 50 g/ha: Solanum nigrum
Method in brief: as §2

bindweed [16] = assay: as above; set-up: key to Foliar treatment herbicidal activity, Bindweed: 0 (no control); 100 (complete control); conditions: 50 g ai/ha, scale 0-100
Method in brief: as §2

barnyard grass [17] = assay: Herbicidal activity test against upland field weeds (soil treatment test); set-up: key to Soil treatment herbicidal activity, barnyard grass: 0 (no control); 100 (complete control); conditions: 50 g ai/ha, scale 0 (no control) to 100 (complete control)
Method in brief: as §1

indian jointvetch [18] = assay: as above; set-up: key to Soil treatment herbicidal activity, Indian jointvetch: 0 (no control); 100 (complete control); conditions: 50 g ai/ha, scale 0 (no control) to 100 (complete control)
Method in brief: as §1

velvetleaf [19] = assay: as above; set-up: key to Soil treatment herbicidal activity, velvet leaf: 0 (no control); 100 (complete control); conditions: 50 g ai/ha, scale 0 (no control) to 100 (complete control)
Method in brief: as §1

quack grass [20] = assay: as above; set-up: key to Soil treatment herbicidal activity, quack grass: 0 (no control); 100 (complete control); conditions: 50 g ai/ha, scale 0 (no control) to 100 (complete control)
Method in brief: as §1

Row | SMILES | pest or weed control at 50 g/ha (crabgrass [1]) [%] | pest or weed control at 50 g/ha (indian jointvetch [2]) [%] | Foliar treatment herbicidal activity, Fall panicum (fall panicum [3]) | Soil treatment herbicidal activity, Cocklebur (cocklebur [4]) | pest or weed control at 50 g/ha (crabgrass [5]) [%] | pest or weed control at 50 g/ha (velvetleaf [6]) [%] | Soil treatment herbicidal activity, Sorghum (sorghum [7]) | Soil treatment herbicidal activity, Bindweed (bindweed [8]) | Foliar treatment herbicidal activity, Sorghum (sorghum [9]) | pest or weed control at 50 g/ha (fall panicum [10]) [%] | pest or weed control at 50 g/ha (barnyard grass [11]) [%] | Foliar treatment herbicidal activity, quack grass (quack grass [12]) | Soil treatment herbicidal activity, black nightshade (black nightshade [13]) | pest or weed control at 50 g/ha (cocklebur [14]) [%] | pest or weed control at 50 g/ha (black nightshade [15]) [%] | pest or weed control at 50 g/ha (bindweed [16]) [%] | pest or weed control at 50 g/ha (indian jointvetch [18]) [%] | Soil treatment herbicidal activity, velvet leaf (velvetleaf [19]) | Soil treatment herbicidal activity, quack grass (quack grass [20]) | Soil treatment herbicidal activity, barnyard grass (barnyard grass [17]) | also measured
1 | C#CCN(Cc1nnn(C)n1)c1nc(C(F)(F)F)ccc1C(=O)Nc1nnnn1C [Compound No. 2-28, N-(1-methyl-1H-tetrazol-5-yl)-2-(((2-methyl-2H-tetrazol-5-yl)methyl)(prop-2-yn-1-yl)amino)-6-(trifluoromethyl)nicotinamide] | 90 | 40 | 0 | 0 | 30 | 40 | 0 | 0 | 0 | 70 | 70 | 0 | 100 | 80 | 90 | 40 | 70 | 100 | 0 |  | pest or weed control at 50 g/ha (barnyard grass [17]; Echinochloa crus-galli): 70%
2 | CCON(Cc1nnn(C)n1)c1nc(C(F)(F)F)ccc1C(=O)Nc1nnnn1C [Compound No. 2-31, 2-(ethoxy((2-methyl-2H-tetrazol-5-yl)methyl)amino)-N-(1-methyl-1H-tetrazol-5-yl)-6-(trifluoromethyl)nicotinamide] | 98 | 40 |  |  | 60 | 70 | 0 | 0 | 0 | 95 | 90 | 0 | 100 | 70 |  |  | 98 | 100 | 0 | 100 | pest or weed control at 50 g/ha (fall panicum [3]): 40%; pest or weed control at 50 g/ha (cocklebur [4]): 30%; Foliar treatment herbicidal activity, black nightshade (black nightshade [15]): 100; Foliar treatment herbicidal activity, Bindweed (bindweed [16]): 0
3 | Cn1nnc(CN(OCc2ccccc2)c2nc(C(F)(F)F)ccc2C(=O)Nc2nnnn2C)n1 [Compound No. 2-29, 2-((benzyloxy)((2-methyl-2H-tetrazol-5-yl)methyl)amino)-N-(1-methyl-1H-tetrazol-5-yl)-6-(trifluoromethyl)nicotinamide] |  |  | 0 | 0 |  |  | 0 | 0 | 0 |  |  | 0 |  |  | 20 |  |  | 0 | 0 | 0 | Soil treatment herbicidal activity, Crabgrass (crabgrass [1]): 0; Foliar treatment herbicidal activity, Indian jointvetch (indian jointvetch [2]): 0; Foliar treatment herbicidal activity, Crabgrass (crabgrass [5]): 0; Foliar treatment herbicidal activity, velvet leaf (velvetleaf [6]; scale 0-100): 0; Soil treatment herbicidal activity, Fall panicum (fall panicum [10]): 0; Foliar treatment herbicidal activity, barnyard grass (barnyard grass [11]): 0; pest or weed control at 50 g/ha (black nightshade [13]; Solanum nigrum): 20%; Foliar treatment herbicidal activity, Cocklebur (cocklebur [14]): 0; Foliar treatment herbicidal activity, Bindweed (bindweed [16]): 0; Soil treatment herbicidal activity, Indian jointvetch (indian jointvetch [18]): 0
4 | Cc1cc(C(=O)Nc2nnnn2C)c(OCc2nnnn2C)nc1C(F)(F)F [Compound No. 1-17, 5-methyl-N-(1-methyl-1H-tetrazol-5-yl)-2-((1-methyl-1H-tetrazol-5-yl)methoxy)-6-(trifluoromethyl)nicotinamide] | 20 |  |  |  | 20 | 30 | 0 |  | 0 | 20 |  | 0 | 100 | 40 |  | 20 |  |  | 0 | 0 | Foliar treatment herbicidal activity, Indian jointvetch (indian jointvetch [2]): 0; pest or weed control at 50 g/ha (fall panicum [3]): 20%; pest or weed control at 50 g/ha (cocklebur [4]): 40%; pest or weed control at 50 g/ha (bindweed [8]): 20%; Foliar treatment herbicidal activity, barnyard grass (barnyard grass [11]): 0; Foliar treatment herbicidal activity, black nightshade (black nightshade [15]): 100; Soil treatment herbicidal activity, Indian jointvetch (indian jointvetch [18]): 0; pest or weed control at 50 g/ha (velvetleaf [19]; Abutilon theophrasti, read-out: Soil treatment herbicidal activity, velvet leaf): 30%

Reference: patent US12495798B2, “Nicotinamide compound and herbicidal composition comprising compound” (KOREA RESEARCH INSTITUTE OF CHEMICAL TECHNOLOGY, priority 2019, dated 2025)
